Data: article PMC9968138, “Design, Synthesis, and Biological Evaluation of a Small-Molecule PET Agent for Imaging PD-L1 Expression” (Pharmaceuticals, 2023)
“And” between values parts separate entries of the source, which are not always exact repeats. Equal entries are not always repeated. Where two headings read alike, the source gives them in different places.

How the values were obtained:
[1] = MTT cell viability assay, PD-L1+ cells; format: cell-based; settings: human, A375-hPD-L1 cells (PD-L1-transfected human melanoma A375), LP-F 0-100 μM
Procedure: (§1) Human melanoma cell line A375 (PD-L1^-) and human PD-L1 gene-transfected A375 cells (A375-hPD-L1, PD-L1^+) were cultured according to previous work.
(§2) Each well was seeded with 1 × 10^4 cancer cells in 96-well plates. LP-F dissolved in DMEM with gradient concentration (0, 12.5, 25, 50 and 100 μM) was added to each well at triple parallels, respectively, and incubated for 24 h. Then, MTT (5 mg/mL, 20 μL/well) was added and incubated for 4 h. 150 μL DMSO was added each well and shaken vigorously for 10 min to dissolve MTT crystallization. The absorbance of each sample was detected at 490 nm by ELISA, and percent cell viability was calculated based on Eq.: Percentage = sample well/reference well × 100%

[2] = MTT cell viability assay, PD-L1- cells; format: cell-based; settings: human, A375 cells (human melanoma, PD-L1 negative), LP-F 0-100 μM
Procedure: as §1, §2

[3] = Micro-PET imaging, non-target tissues (muscle, bone); format: in vivo, mice; settings: up to 60 min
From the text: (§3) Female BALB/c nude mice at age of 5~7 weeks were inoculated subcutaneously with 1 × 10^6 A375-hPD-L1 cells in saline at the left flank and 1 × 10^6 A375 cells at the right flank in the same mouse in order to eliminate individual differences. Animal study can be performed in accordance with the principles laid out by the ethical committee of Jiangsu Institute of Nuclear Medicine.
(§4) A375 (right)/A375-hPD-L1 (left) bilateral tumor-bearing mice (n = 3) were anesthetized and then intravenously injected with [^18F] LP-F (~7.4 MBq) dissolved in saline (200 μL). Dynamic scanning was performed for one hour. ASIPro software (Siemens) was applied to process the PET images. Dynamic images were reconstructed in OSEM3D/MAP algorithm and split into twelve frames. Quantification and analysis of region of interest (ROI) in tumors and organs were carried out.

[4] = In vitro stability assay in mouse serum (radio-HPLC); format: in vitro ADME; settings: 37 °C, 4 h
Procedure: (§5) In order to investigate the in vitro stability of the radioactive probe, [^18F]LP-F (~14.8 MBq, 40 μL) was incubated in PBS (pH 7.4, 360 μL) at 37 °C for 4 h. [^18F]LP-F (~14.8 MBq, 40 μL) was also mixed with mouse serum (360 μL) and maintained at 37 °C for 4 h. Such PBS solution was subjected to stability analysis using radio-HPLC at 0, 1, 2 and 4 h. A 30 μL sample from the above mouse serum after protein precipitation with 30 μL acetonitrile was also subjected to stability analysis at 0, 1, 2 and 4 h.

A375 cells = assay: Cell uptake of the tracer, PD-L1- cells; format: cell-based, human; settings: 4 h
Procedure: as §1
(§6) A375 cells and A375-hPD-L1 cells (1 × 10^6) were added to each tube, separately. [^18F]LP-F (37 kBq/tube) diluted in DMEM was added and incubated at 37 °C for different periods (30, 60, 120, and 240 min). PD-L1^+ cells were incubated with 100 μL 25 μM LP-F for 30 min ahead to block PD-L1^+ cells and then incubated with [^18F]LP-F (37 kBq/tube) at same conditions. After incubation and wash, the cells’ radioactivity was measured.

A375-hPD-L1 tumor = assay: Micro-PET imaging, PD-L1+ tumor; format: in vivo, mice
From the text: as §3, §4

A375-hPD-L1 cells = assay: Cell uptake of the tracer, PD-L1+ cells; format: cell-based, human; settings: for cell uptake after blockade by LP-F: PD-L1+ cells blocked with 25 μM LP-F; for cell uptake: PD-L1+ cells
Procedure: as §1, §6

[5] = In vitro stability assay in PBS (radio-HPLC); format: physicochemical; settings: PBS pH 7.4, 37 °C, 4 h
Procedure: as §5

PD-L1 = biological target: T1, PD-L1 (Homo sapiens, UniProt Q9NZQ7); assay: Saturation binding assay on PD-L1+ cells; settings: PD-L1+ cell, one-site model, read-out: dissociation constant (Kd)
T1 construct: expressed in transfected cells; host or cells: A375 human melanoma cells transfected with the human PD-L1 gene (A375-hPD-L1)
T1 sequence (Q9NZQ7 19-290): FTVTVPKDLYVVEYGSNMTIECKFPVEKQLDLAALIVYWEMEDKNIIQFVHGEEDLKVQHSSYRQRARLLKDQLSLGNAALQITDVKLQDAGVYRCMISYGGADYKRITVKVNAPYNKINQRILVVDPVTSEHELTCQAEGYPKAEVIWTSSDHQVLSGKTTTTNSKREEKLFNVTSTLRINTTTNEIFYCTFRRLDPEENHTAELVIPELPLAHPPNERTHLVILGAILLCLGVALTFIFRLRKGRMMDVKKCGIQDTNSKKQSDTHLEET
Procedure: as §1
PD-L1^+ cells (2 × 10^5) were added to each tube and incubated with the gradient of concentration of [^18F]LP-F dissolved in DMEM (0 to 128 nM) at 37 °C for 1 h. After incubation, the cells were centrifuged and washed by PBS twice and then were measured for radioactivity by a γ counter as total bound value. For the non-specific bound value, PD-L1^+ cells (2 × 10^5) were added to each tube and incubated with LP-F (50 μM) dissolved in DMEM for half an hour in advance and then incubated with above concentrations of [^18F]LP-F. After centrifugation and wash, the radioactivity was detected. The specific binding value is obtained by subtracting non-specific bound value from total bound value. The equilibrium dissociation constant (Kd) was calculated by non-linear fit in a one-site model through specific binding values and concentrations of [^18F]LP-F.

[6] = Partition coefficient test (1-octanol/water); format: physicochemical
Procedure: Amounts of 0.37 MBq [^18F]LP-F, 1000 μL water and 1000 μL 1-octanol were mixed in a tube. The mixture was thoroughly shaken for 5 min. After centrifugation, 500 μL water was withdrawn from water phase and its radioactivity was measured by a gamma counter. An equal volume of 1-octanol was withdrawn from the organic phase and measured. The partition coefficient (Log P) was calculated based on Eq. Log P = Lg(Concentration of [^18F]LP-F in 1-octanol/Concentration of [^18F]LP-F in water)
Then, 500 μL water and 500 μL 1-octanol were added to the above tube to replenish the water and the organic phase. The two-phase system was shaken again. Water and the organic phase were sampled and measured and Log P was calculated again. Repeat two more times.

A375 tumor = assay: Micro-PET imaging, PD-L1- tumor; format: in vivo, mice
From the text: as §3, §4

Cc1c(COc2cc(OCc3cccc(C#N)c3)c(CN3CCN(CCOCCOCCOCCF)CC3)cc2Cl)cccc1-c1ccc2c(c1)OCCO2 [LP-F]
viability at 24 h [1]: > 90% | viability at 24 h [2]: > 90%

Cc1c(COc2cc(OCc3cccc(C#N)c3)c(CN3CCN(CCOCCOCCOCC[18F])CC3)cc2Cl)cccc1-c1ccc2c(c1)OCCO2 [[^18F]LP-F]
activity on the bone (defluorination, in vivo stability) [3]: no obvious activity on the bone | stability in mouse serum [4]: high stability | maximum cell uptake (A375 cells): 1.41 ± 0.09 %AD | ratio of PD-L1+ tumor uptake to PD-L1- tumor uptake (A375-hPD-L1 tumor; 50 min): 2.95 ± 0.39 times | tumor-to-muscle ratio (T/M) (A375-hPD-L1 tumor; PD-L1+ tumor, 30 min post injection): 2.08 ± 0.38 | maximum tumor uptake (A375-hPD-L1 tumor; PD-L1+ tumor, 50 min): 3.53 ± 0.46 %ID/mL | tumor-to-muscle ratio (T/M) (A375-hPD-L1 tumor; PD-L1+ tumor, 50 min): 2.20 ± 0.29 | cell uptake after blockade by LP-F (A375-hPD-L1 cells; 0.5 h): 1.42 ± 0.03 %AD | cell uptake after blockade by LP-F (A375-hPD-L1 cells; 4 h): 1.72 ± 0.02 %AD | cell uptake (A375-hPD-L1 cells; 30 min): 3.66 ± 0.20 %AD | cell uptake (A375-hPD-L1 cells; 4 h): 3.64 ± 0.19 %AD | stability in PBS [5]: high stability | Kd (PD-L1): 226 nM | logP ([6]; mean ± SD, read-out: partition coefficient (Log P)): 2.18 ± 0.16 | Log P (single trial) ([6]; trials 1-3): 2.08 and 2.10 | logP ([6]; trials 1-3, read-out: Log P (single trial)): 2.37 | tumor-to-muscle ratio (T/M) (A375 tumor; 10 min): 0.82 ± 0.24 | tumor-to-muscle ratio (T/M) (A375 tumor; 50 min): 0.75 ± 0.19 | maximum tumor uptake (A375 tumor; 60 min): 1.23 ± 0.39 %ID/mL | tumor-to-muscle ratio (T/M) (A375 tumor; all the time): below 1
